Measured values from ChEMBL document CHEMBL4419171, “SMAC mimetic compounds as apoptosis inducers” (2013).

Tests used:
Assay type in all cases: functional
K562 [1] = experiment: Cytotoxicity against human K562 cells assessed as cell viability at 0.1 nM in presence of 100 ng/ml cisplatin incubated for 72 hrs by WST1 dye based assay relative to control
K562 [2] = experiment: Cytotoxicity against human K562 cells assessed as cell viability at 100 nM in presence of 100 nM taxol incubated for 72 hrs by WST1 dye based assay relative to control; settings: K562, 72 h, read-out: Activity
HL-60 = experiment: Cytotoxicity against human HL60 cells assessed as cell viability at 10 nM in presence of 100 ng/ml cisplatin incubated for 72 hrs by WST1 dye based assay relative to control
K562 [3] = experiment: Cytotoxicity against human K562 cells assessed as cell viability at 10 nM in presence of 10 ng/ml cisplatin incubated for 72 hrs by WST1 dye based assay relative to control

| SMILES | Activity (K562 [1]) [%] | viability at 0.1 µM (K562 [2]) [%] | Activity (HL-60) [%] | Activity (K562 [3]) [%] |
| --- | --- | --- | --- | --- |
| CC[C@H](N)C(=O)N[C@@H]1C(=O)N2[C@@H](CC[C@@H]1Cn1cc(CO[C@H](C)[C@H](NC(=O)[C@H](C)NC)C(=O)N3CCC[C@H]3Cn3nnnc3Sc3ccccc3)nn1)CC[C@H]2C(=O)NC(c1ccccc1)c1ccccc1.O=C(O)C(F)(F)F | 30 | 27 |  |  |
| CC[C@H](N)C(=O)N[C@@H]1C(=O)N2[C@@H](CC[C@@H]1CO)CC[C@H]2C(=O)NC(c1ccccc1)c1ccccc1.O=C(O)C(F)(F)F |  |  | 43 | 48 |
